What was measured:
Format in all cases: in vivo
[1] = tested on: Verconica persica (VERPE); experiment: Post-emergence herbicidal action against VERPE
Summary of the method: (§1)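 Post-emergence greenhouse spray, one-leaf stage, 600 l/ha water plus 0.5% additive; WP or EC formulations; application rates 320 g/ha or lower. Visual % damage vs untreated controls at ~3 weeks.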

Oryza sativa (ORYSA) [2] = details: pre-emergence, 80 g/ha, crop plant compatibility, in comparison to untreated controls
Summary of the method: (§2)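 Scoring: visual, % of untreated control, about 3 weeks after a pre-emergence application to the soil surface. Application used WP or EC formulations diluted in water with 0.5% additive at 600 l/ha; dosage levels are marked by suffixes a, b and c.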

[3] = tested on: Matricaria inodora (MATIN); experiment: Pre-emergence herbicidal action against MATIN; details: dosage 320 g/ha
Summary of the method: (§3)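 Read-out is visual percent damage relative to untreated pots, with 100% meaning dead plants and 0% meaning no difference, assessed roughly three weeks after treatment. Compounds were applied pre-emergence to the covering soil at up to 320 g/ha.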

[4] = tested on: Abutilon theophrasti (ABUTH); experiment: Post-emergence herbicidal action against ABUTH; details: visual rating about 3 weeks after treatment vs untreated controls (100% = plants have died, 0% = like control plants)
Summary of the method: as §1

Avena fatua (AVEFA) [5] = experiment: Post-emergence herbicidal action against AVEFA; details: visual rating about 3 weeks after treatment
Summary of the method: as §1

[6] = tested on: Echinochloa crus-galli (ECHCG); experiment: Pre-emergence herbicidal action against ECHCG
Summary of the method: as §3

[7] = tested on: Alopecurus myosuroides (ALOMY); experiment: Pre-emergence herbicidal action against ALOMY; details: scored visually after about 3 weeks, 100% = plants have died
Summary of the method: as §3

[8] = tested on: Echinochloa crus-galli (ECHCG); experiment: Post-emergence herbicidal action against ECHCG
Summary of the method: as §1

[9] = tested on: Amaranthus retroflexus (AMARE); experiment: Pre-emergence herbicidal action against AMARE; details: visual scoring after about 3 weeks vs untreated controls
Summary of the method: as §3

[10] = tested on: Polygonum convolvulus (POLCO); experiment: Post-emergence herbicidal action against POLCO
Summary of the method: as §1

[11] = tested on: Alopecurus myosuroides (ALOMY); experiment: Post-emergence herbicidal action against ALOMY; details: visual rating about 3 weeks after treatment vs untreated controls (100% = plants have died, 0% = like control plants)
Summary of the method: as §1

Viola tricolor (VIOTR) [12] = experiment: Pre-emergence herbicidal action against VIOTR
Summary of the method: as §3

[13] = tested on: Pharbitis purpurea (PHBPU); experiment: Pre-emergence herbicidal action against PHBPU
Summary of the method: as §3

Setaria viridis (SETVI) [14] = experiment: Pre-emergence herbicidal action against SETVI
Summary of the method: as §3

Lolium rigidum (LOLRI) [15] = experiment: Pre-emergence herbicidal action against LOLRI
Summary of the method: as §3

Avena fatua (AVEFA) [16] = experiment: Pre-emergence herbicidal action against AVEFA; details: visual scoring after about 3 weeks vs untreated controls
Summary of the method: as §3

[17] = tested on: Amaranthus retroflexus (AMARE); experiment: Post-emergence herbicidal action against AMARE; details: 320 g/ha, visual rating about 3 weeks after treatment
Summary of the method: as §1

[18] = tested on: Verconica persica (VERPE); experiment: Pre-emergence herbicidal action against VERPE
Summary of the method: as §3

[19] = tested on: Pharbitis purpurea (PHBPU); experiment: Post-emergence herbicidal action against PHBPU
Summary of the method: as §1

Setaria viridis (SETVI) [20] = experiment: Post-emergence herbicidal action against SETVI; details: dosage 320 g/ha
Summary of the method: as §1

[21] = tested on: Polygonum convolvulus (POLCO); experiment: Pre-emergence herbicidal action against POLCO
Summary of the method: as §3

Viola tricolor (VIOTR) [22] = experiment: Post-emergence herbicidal action against VIOTR
Summary of the method: as §1

Oryza sativa (ORYSA) [23] = details: crop plant compatibility, 80 g/ha, effect in comparison to untreated controls
Summary of the method: (§4)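 Greenhouse crops in sandy loam sprayed post-emergence at the one-leaf stage, 2–3 weeks after sowing, with WP or EC formulations in water plus 0.5% additive at 600 l/ha. Damage rated visually about 3 weeks later versus untreated controls (0% = like control, 100% = dead); suffixes a–c denote different doses.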

Zea mays (ZEAMX) [24] = details: for Post-emergence action against ZEAMX in %: crop plant compatibility, 80 g/ha, effect vs untreated controls
Summary of the method: as §4

Zea mays (ZEAMX) [25] = details: pre-emergence, 80 g/ha, crop plant compatibility, in comparison to untreated controls
Summary of the method: as §2

[26] = tested on: Digitaria sanguinalis (DIGSA); experiment: Pre-emergence herbicidal action against DIGSA
Summary of the method: as §3

[27] = tested on: Matricaria inodora (MATIN); experiment: Post-emergence herbicidal action against MATIN
Summary of the method: as §1

[28] = tested on: Digitaria sanguinalis (DIGSA); experiment: Post-emergence herbicidal action against DIGSA; details: visual rating about 3 weeks after treatment
Summary of the method: as §1

Lolium rigidum (LOLRI) [29] = experiment: Post-emergence herbicidal action against LOLRI
Summary of the method: as §1

[30] = 80 g/ha, visual scoring after about 3 weeks vs untreated controls

Row | Compound | Pre-emergence action against MATIN in % [3] | Post-emergence action against AVEFA in % (Avena fatua (AVEFA) [5]; 320 g/ha) | Pre-emergence action against ECHCG in % ([6]; dosage 320 g/ha) | Pre-emergence action against ALOMY ([7]; 80 g/ha) | Pre-emergence action against ALOMY ([7]; 320 g/ha) | Post-emergence action against ECHCG in % ([8]; dosage 80 g/ha) | Post-emergence action against ECHCG in % ([8]; dosage 320 g/ha) | Pre-emergence action against AMARE in % ([9]; 80 g/ha) | Pre-emergence action against AMARE in % ([9]; 320 g/ha) | Post-emergence action against POLCO in % ([10]; dosage 80 g/ha) | Post-emergence action against POLCO in % ([10]; dosage 320 g/ha) | Post-emergence action against ALOMY in % ([11]; 80 g/ha) | Post-emergence action against ALOMY in % ([11]; 320 g/ha) | Pre-emergence action against VIOTR in % (Viola tricolor (VIOTR) [12]; 320 g/ha, Viola tricolor) | Pre-emergence action against VIOTR in % (Viola tricolor (VIOTR) [12]; dosage 80 g/ha) | Pre-emergence action against PHBPU in % ([13]; dosage 320 g/ha) | Pre-emergence action against LOLRI in % (Lolium rigidum (LOLRI) [15]; dosage 320 g/ha) | Pre-emergence action against AVEFA in % (Avena fatua (AVEFA) [16]; 320 g/ha) | Pre-emergence action against POLCO in % ([21]; dosage 320 g/ha) | Post-emergence action against VIOTR in % (Viola tricolor (VIOTR) [22]; 80 g/ha) | also measured
1 | O=C(O)COc1nn(-c2nc(F)ccc2F)c(-c2ccc(F)nc2)c1Cl [Example I-337] | 90% | 80% | 90% | 80% | 90% | 80% | 90% | 90% | 90% | 80% | 80% | 90% | 90% | 100% | 80% | 80% | 100% | 90% | 90% | 80% | Post-emergence action against VERPE in % ([1]; 320 g/ha, VERPE): 80%; Post-emergence action against VERPE in % ([1]; dosage 80 g/ha): 80%; Pre-emergence action against ORYSA in % (Oryza sativa (ORYSA) [2]): 20%; Post-emergence action against ABUTH in % ([4]; 80 g/ha): 80%; Post-emergence action against ABUTH in % ([4]; 320 g/ha): 80%; Pre-emergence action against ECHCG in % ([6]; dosage 80 g/ha): 80%; Pre-emergence action against PHBPU in % ([13]; dosage 80 g/ha): 80%; Pre-emergence action against SETVI in % (Setaria viridis (SETVI) [14]; dosage 80 g/ha): 90%; Pre-emergence action against SETVI in % (Setaria viridis (SETVI) [14]; dosage 320 g/ha): 100%; Post-emergence action against AMARE in % [17]: 80%; Pre-emergence action against VERPE in % ([18]; dosage 80 g/ha): 90%; Pre-emergence action against VERPE in % ([18]; dosage 320 g/ha): 90%; Post-emergence action against PHBPU in % ([19]; dosage 80 g/ha): 90%; Post-emergence action against PHBPU in % ([19]; dosage 320 g/ha): 90%; Post-emergence action against SETVI in % (Setaria viridis (SETVI) [20]): 80%; Pre-emergence action against POLCO in % ([21]; dosage 80 g/ha): 80%; Post-emergence action against VIOTR in % (Viola tricolor (VIOTR) [22]; 320 g/ha): 80%; Post-emergence action against ORYSA in % (Oryza sativa (ORYSA) [23]): 20%; Post-emergence action against ZEAMX in % (Zea mays (ZEAMX) [24]): 10%
2 | COC(=O)CCOC(=O)C(C)Oc1nn(-c2ccccn2)c(-c2ccc(F)nc2)c1C(F)(F)F (stereo not drawn) [Example I-293] | 80% | 90% | 90% | 90% | 100% | – | 80% | – | 100% | 80% | 80% | 90% | 90% | 100% | 80% | 80% | 100% | 90% | 80% | 80% | Pre-emergence action against ZEAMX in % (Zea mays (ZEAMX) [25]): 20%; Pre-emergence action against DIGSA in % [26, 30]: 80%; Pre-emergence action against DIGSA in % ([26]; dosage 320 g/ha): 100%; Post-emergence action against AVEFA in % (Avena fatua (AVEFA) [5]; 80 g/ha): 80%; Post-emergence action against MATIN in % ([27]; dosage 320 g/ha): 80%; Post-emergence action against DIGSA in % ([28]; 320 g/ha): 80%; Pre-emergence action against LOLRI in % (Lolium rigidum (LOLRI) [15]; dosage 80 g/ha): 100%; Pre-emergence action against AVEFA in % (Avena fatua (AVEFA) [16]; 80 g/ha): 80%; Post-emergence action against AMARE in % [17]: 80%; Post-emergence action against PHBPU in % ([19]; dosage 320 g/ha): 80%; Post-emergence action against SETVI in % (Setaria viridis (SETVI) [20]): 80%; Post-emergence action against LOLRI in % (Lolium rigidum (LOLRI) [29]; dosage 80 g/ha): 80%; Post-emergence action against LOLRI in % (Lolium rigidum (LOLRI) [29]; dosage 320 g/ha): 80%; Post-emergence action against VIOTR in % (Viola tricolor (VIOTR) [22]; 320 g/ha): 80%; Post-emergence action against ORYSA in % (Oryza sativa (ORYSA) [23]): 0%
3 | N#CCOC(=O)COc1nn(-c2ncccc2F)c(-c2ccc(F)nc2)c1Br [Example I-30] | 90% | – | 100% | 100% | 100% | 80% | – | 100% | 100% | – | – | 90% | – | 100% | 90% | 90% | 100% | 100% | 90% | 80% | Pre-emergence action against ZEAMX in % (Zea mays (ZEAMX) [25]): 10%; Pre-emergence action against DIGSA in % [26, 30]: 100%; Pre-emergence action against DIGSA in % ([26]; dosage 320 g/ha): 100%; Post-emergence action against MATIN in % ([27]; dosage 80 g/ha): 90%; Pre-emergence action against SETVI in % (Setaria viridis (SETVI) [14]; dosage 80 g/ha): 90%; Pre-emergence action against SETVI in % (Setaria viridis (SETVI) [14]; dosage 320 g/ha): 100%; Post-emergence action against DIGSA in % ([28]; 80 g/ha): 90%; Pre-emergence action against LOLRI in % (Lolium rigidum (LOLRI) [15]; dosage 80 g/ha): 90%; Pre-emergence action against VERPE in % ([18]; dosage 320 g/ha): 90%; Pre-emergence action against POLCO in % ([21]; dosage 80 g/ha): 80%; Post-emergence action against ZEAMX in % (crop plant compatibility) (Zea mays (ZEAMX) [24]; 20 g/ha, ZEAMX, effect in comparison to untreated controls): 20%; Post-emergence action against ZEAMX in % (Zea mays (ZEAMX) [24]): 20%

Source: patent US20240041042A1, “1-(PYRIDYL)-5-AZINYLPYRAZOLE DERIVATIVES, AND THEIR USE FOR CONTROL OF UNDESIRED PLANT GROWTH” (Bayer Aktiengesellschaft, priority 2020, published 2024)
